Here are results for 2 compounds from US20230303478A1, “PROCESS FOR PREPARING CARBOXYLIC ACID ESTERS OF HYDROXYBUTANOATES” (IOI Oleo GmbH, priority 2020, published 2023).

Data set [1] in a line: Cleavage (in-vitro digestion) experiments in FaSSGF medium, which simulates the stomach. The format is in vitro ADME. The following applies: cleavage experiments in FaSSGF or FaSSIF medium; stepwise release, retardation effect. An excerpt:
By means of cleavage experiments it is shown that carboxylic acid esters of 3-hydroxybutanoate produced according to the invention or mixtures thereof (cf. previously described experiments according to I., II. and III.), including reaction by-products such as dimers, etc., can be cleaved in the human gastrointestinal tract.
In each case, purified reaction products obtained by the inventive method are used as starting mixtures (i.e. tartaric acid ester of 3-hydroxybutanoate, lactic acid ester of 3-hydroxybutanoate, succinic acid ester of 3-hydroxybutanoate, citric acid ester of 3-hydroxybutanoate, maleic acid ester of 3-hydroxybutanoate, fumaric acid ester of 3-hydroxybutanoate, malic acid ester of 3-hydroxybutanoate and adipic acid ester of 3-hydroxybutanoate).
For the cleavage experiments under near-body conditions two media are investigated: • FaSSGF, which simulates the stomach • FaSSIF, which simulates the intestinal tract
Both media are from the company Biorelevant®, Ltd. in Great Britain. In addition, in some experiments porcine pancreas is added (Panzytrat® 40,000, Fa. Allergan).
Under FaSSIF conditions, a lower conversion using Panzytrat® takes place.
Accordingly, the cleavage experiments of dicarboxylic acid esters of 3-hydroxybutanoates also proceed in a cascade. Thus, a retardation effect is present overall.

The conditions of data set [2]: even if several grams are taken; patients; cited from earlier work.

Consider `CCOC(=O)CC(C)OC(=O)CC(O)(CC(=O)OC(C)CC(=O)OCC)C(=O)OC(C)CC(=O)OCC` (centres unmarked) [1,2,3-tris-(4-ethoxy-4-oxobutan-2yl)-2-hydroxypropane-1,2,3-tricarboxylate], for which, in data set [1], the “course of the cleavage of 3-hydroxybutanoate” value is “proceeds in a cascade”.

For the compound `CC(O)CC(=O)O` (centres unmarked) [3-hydroxybutyric acid], the duration of ketosis result in data set [2] is reported as “about three to four”.
